By EC50 is commonly meant the concentration giving half of the maximal effect. The Kd is the concentration at which binding is half-saturated.

Where two headings read alike, the source gives them in different places.

For one data set, the system named is SMN2 exon 7 splicing. The data set can be described thus: Cell-based SMN2 splicing assay in 293T cells (minigene). More on the design: species or system human. The settings on record: for EC50: Homo sapiens, HEK-293T; for splicing modulation in cells: cellular SMN2 splicing assays.
Data set [1] addresses DNA Seq6 (UGAAGGAAGGU as deoxyribonucleotides). The experiment in a line: FP binding assay, DNA Seq6. The settings on record: footnote c: FP assay for DNA Seq6; range = 95% CI; read-out: Kd. As to the method:
All synthetic DNA and RNA oligomers were purchased from Integrated DNA Technologies and reconstituted in nuclease-free water (Invitrogen #AM9932) at 1 mM. The concentration of the oligonucleotides at ˜0.1 mM was calibrated with the A260 value measured by a NanoDrop ND-1000 (Thermo, Waltham, MA, USA) and the predicted extinction coefficient (http://www.oligoevaluator.com) using Lamber-Beer's Law. The risdiplam analogues (1 mM in DMSO) were diluted in 2× assay buffer (40 mM HEPES, 200 mM NaCl for RNA; 40 mM HEPES, 200 mM NaCl, 1 mM MgCl2 for DNA) to make a 1 μM 2× working solution.
A 1:2 dilution series (8 points) of each oligonucleotide was prepared in 20-30 μL water to desired concentrations (i.e., 1-128 μM). 20-30 μL 2× working solution containing the 2× assay buffer and the small-molecule ligand was added to each oligonucleotide sample in 1:1 (v/v) and mixed by pipetting for 4 times. For fluorescence polarization measurement, 20 μL of the above 1× working solution was transferred into a 384-well, black, F-bottom microplates (Greiner Bio-One) in duplicates or triplicates. The plate was equilibrated at room temperature for 5 min before being read using a microplate reader (SYNERGY H1, BioTek; Excitation/Emission=360/460 nm) at 25° C. For compound SMN-C5, a competitive binding assay was employed to measure an apparent Kd. SMN-C5 was 1:2 serial diluted for 10 concentration points starting at 750 μM in DMSO. A mixture of SMN-C2 (0.5 μM) and DNA Seq6 (25 μM) in 1× assay buffer was prepared and incubated at room temperature for 10 minutes. 3 μL of SMN-C5 solution at each concentration was added to a 42 μL SMN-C2/DNA Seq6 mixture and incubated at room temperature for 10 minutes. The mixture was then transferred into a microplate (20 μL each well) in duplicates for fluorescence polarization readout. The experimental data were analyzed using Prism 8 software (Graphpad Software, San Diego, CA, USA).

Data set [2] can be described thus: in vitro. The settings on record: human.
Data set [3] is described as follows: in vitro. The following applies: human. The source holds these as a separate data set.
Data set [4] can be described thus: in vitro. The settings on record: human. The source holds these as a separate data set.
The target in data set [5] is COVID RNA (SARS-CoV-2 RNA SL5 per FIG. 8). The experiment in a line: FP binding, Kd for COVID RNA.
[6] abbreviates: Table 3, read-out: SMN2 Splicing EC50.
Setting [7] is: cell-based SMN2 splicing assay in 293T cells, read-out: SMN2 EC50.

Regarding `CN1CCN(c2cc(F)c3cc(-c4cccc(Cl)c4)c(=O)oc3c2)CC1` [Compound C25, 3-(3-chlorophenyl)-5-fluoro-7-(4-methylpiperazin-1-yl)-2H-chromen-2-one], the EC50 in the data set on SMN2 exon 7 splicing (setting [6]) and in the data set on SMN2 exon 7 splicing (setting [7]) was over 8 µM in each case. Moreover, the Kd in data set [1] was 18.7 ± 4 µM.

For `O=c1oc2cc(N3CCNCC3)ccc2cc1-c1ccc2ccccc2c1` [Compound C39], the EC50 in the data set on SMN2 exon 7 splicing (setting [6]) is over 8 µM. In the data set “in vitro [2]”, this molecule yielded a CC50 of 7.9 µM.

Turning to `Cc1cn2cc(-c3c(OCCNC(=O)OC(C)(C)C)c4ccc(N5CCN[C@@H](C)C5)cc4oc3=O)nc2c(C)n1` [Compound C7], in the data set with SMN2 exon 7 splicing (setting [6]), the EC50 was over 8 µM.

For `COc1ccn2cc(-c3cc4ccc(N5CCNCC5)cc4oc3=O)nc2c1` [Compound C34, 3-(7-methoxyimidazo[1,2-a]pyridin-2-yl)-7-(piperazin-1-yl)-2H-chromen-2-one], in “in vitro [2]”, the CC50 came to 3.6 µM.

Turning to `CN1CCN(c2cc(F)c3cc(-c4ccc(Cl)cc4)c(=O)oc3c2)CC1` [Compound C26, 3-(4-chlorophenyl)-5-fluoro-7-(4-methylpiperazin-1-yl)-2H-chromen-2-one], the EC50 with SMN2 exon 7 splicing (setting [6]) and with SMN2 exon 7 splicing (setting [7]) was over 8 µM in each case. Moreover, the CC50 in the data set “in vitro [3]”, in the data set “in vitro [4]” and in “in vitro [2]” was over 30 µM in each case. Moreover, the Kd in data set [1] amounted to 9.9 ± 0.9 µM.

Take `CN1CCN(c2ccc3cc(-c4ccccc4Cl)c(=O)oc3c2)CC1` [Compound C18, 3-(2-chlorophenyl)-7-(4-methylpiperazin-1-yl)-2H-chromen-2-one]: the EC50 in the data set with SMN2 exon 7 splicing (setting [6]) and with SMN2 exon 7 splicing (setting [7]) was over 8 µM in each case. Moreover, in data set [1], the Kd is over 100 µM.

The molecule `O=c1oc2cc(N3CCNCC3)ccc2cc1-c1cn2cc(C(F)(F)F)ccc2n1` [Compound C37, 7-(piperazin-1-yl)-3-(6-(trifluoromethyl)imidazo[1,2-a]pyridin-2-yl)-2H-chromen-2-one] yielded a CC50 in “in vitro [2]” of 14.1 µM.

On to `O=c1oc2cc(N3CCNCC3)ccc2cc1-c1cn2ccc(C(F)(F)F)cc2n1` [Compound C36, 7-(piperazin-1-yl)-3-(7-(trifluoromethyl)imidazo[1,2-a]pyridin-2-yl)-2H-chromen-2-one], for which the Kd in data set [5] (Table 3) was determined as 1.4 ± 0.4 µM; in data set [5] (Table 4) it was 1.39 ± 0.4 µM.

`O=c1oc2cc(N3CCNCC3)ccc2cc1-c1ccc2ncccc2c1` [Compound C38]: the EC50 in the data set with SMN2 exon 7 splicing (setting [6]) was over 8 µM. Also, the CC50 in the data set “in vitro [2]” was found to be 1.8 µM.

In the case of `O=c1oc2cc(N3CCNCC3)ccc2cc1-c1cn2ccc(Cl)cc2n1` [Compound C32, 3-(7-chloroimidazo[1,2-a]pyridin-2-yl)-7-(piperazin-1-yl)-2H-chromen-2-one], the EC50 with SMN2 exon 7 splicing (setting [6]) is over 8 µM. Besides, the Kd in data set [5] (Table 3) turned out to be 0.4 ± 0.04 µM; in data set [5] (Table 4), 0.4 ± 0.4 µM.

As for `Cc1cn2cc(-c3cc4ccc(N5CCN(CCOCCN=[N+]=[N-])[C@@H](C)C5)cc4oc3=O)nc2c(C)n1` [Compound C12, (S)-7-(4-(2-(2-azidoethoxy)ethyl)-3-methylpiperazin-1-yl)-3-(6,8-dimethylimidazo[1,2-a]pyrazin-2-yl)-2H-chromen-2-one], in the data set with SMN2 exon 7 splicing (setting [6]), the EC50 was 0.18 ± 0.04 µM. Also, the Kd in data set [5] (Table 3) and in data set [5] (Table 4) was 2.6 ± 0.8 µM throughout.

In the case of `COc1cn2cc(-c3cc4ccc(N5CCNCC5)cc4oc3=O)nc2cn1` [Compound C28, 3-(6-methoxyimidazo[1,2-a]pyrazin-2-yl)-7-(piperazin-1-yl)-2H-chromen-2-one], the EC50 with SMN2 exon 7 splicing (setting [6]) and with SMN2 exon 7 splicing (setting [7]) was over 8 µM in each case. In addition, in the data set with SMN2 exon 7 splicing, the “splicing modulation in cells” value is “without showing any observable splicing modulation”. For the same molecule, the Kd came out at 0.47 ± 0.08 µM in data set [5] (Table 3), 0.47 ± 0.8 µM in data set [5] (Table 4) and 1.4 ± 0.2 µM in data set [1].

With `CN1CCN(c2cc(F)c3cc(-c4ccccc4Cl)c(=O)oc3c2)CC1` [Compound C24, 3-(2-chlorophenyl)-5-fluoro-7-(4-methylpiperazin-1-yl)-2H-chromen-2-one], the EC50 in the data set with SMN2 exon 7 splicing (setting [6]) is over 8 µM.

Turning to `Cc1cn2cc(-c3c(Br)c4ccc(N5CCN[C@@H](C)C5)cc4oc3=O)nc2c(C)n1` [Compound C13, (S)-4-bromo-3-(6,8-dimethylimidazo[1,2-a]pyrazin-2-yl)-7-(3-methylpiperazin-1-yl)-2H-chromen-2-one], in the data set on SMN2 exon 7 splicing (setting [6]), the EC50 is 0.45 ± 0.18 µM.

For the molecule `COc1ccc2nc(-c3cc4ccc(N5CCNCC5)cc4oc3=O)cn2c1` [Compound C35, 3-(6-methoxyimidazo[1,2-a]pyridin-2-yl)-7-(piperazin-1-yl)-2H-chromen-2-one], in “in vitro [2]”, the CC50 was determined as 3 µM.

For `Cc1c(-c2cccc(Cl)c2)c(=O)oc2cc(N3CCN(C)CC3)ccc12` [Compound C22, 3-(3-chlorophenyl)-4-methyl-7-(4-methylpiperazin-1-yl)-2H-chromen-2-one], the EC50 in the data set with SMN2 exon 7 splicing (setting [6]) and in the data set on SMN2 exon 7 splicing (setting [7]) was over 8 µM throughout. For the same molecule, the CC50 in the data set “in vitro [3]”, in “in vitro [4]” and in the data set “in vitro [2]” was over 30 µM in each case. The Kd in data set [1] is over 100 µM.

With `O=c1oc2cc(N3CCNCC3)ccc2cc1-c1cn2cc(F)ccc2n1` [Compound C31, 3-(6-fluoroimidazo[1,2-a]pyridin-2-yl)-7-(piperazin-1-yl)-2H-chromen-2-one], the CC50 in the data set “in vitro [2]” stood at 4.7 µM. Besides, the Kd in data set [5] (Table 3) and in data set [5] (Table 4) was 0.68 ± 0.1 µM in each case.

For `CN1CCN(c2ccc3cc(-c4cccc(Cl)c4)c(=O)oc3c2)CC1` [Compound C19, 3-(3-chlorophenyl)-7-(4-methylpiperazin-1-yl)-2H-chromen-2-one], the concentration for a half-maximal effect (EC50) with SMN2 exon 7 splicing (setting [6]) and with SMN2 exon 7 splicing (setting [7]) was over 8 µM in each case. In addition, the CC50 in “in vitro [3]”, in “in vitro [4]” and in the data set “in vitro [2]” was over 30 µM in each case. For the same molecule, the Kd in data set [1] turned out to be 13.9 ± 1.1 µM.

As to `CC(=O)N1CCN(c2ccc3cc(-c4cn5cc(C)nc(C)c5n4)c(=O)oc3c2)C[C@@H]1C` [Compound C8, (S)-7-(4-acetyl-3-methylpiperazin-1-yl)-3-(6,8-dimethylimidazo[1,2-a]pyrazin-2-yl)-2H-chromen-2-one], the EC50 in the data set with SMN2 exon 7 splicing (setting [6]) was over 8 µM.

For the molecule `Cc1c(-c2ccc(Cl)cc2)c(=O)oc2cc(N3CCN(C)CC3)ccc12` [Compound C23, 3-(4-chlorophenyl)-4-methyl-7-(4-methylpiperazin-1-yl)-2H-chromen-2-one], the EC50 in the data set with SMN2 exon 7 splicing (setting [6]) and with SMN2 exon 7 splicing (setting [7]) was over 8 µM in each case. In addition, the Kd in data set [1] is over 100 µM.

In the case of `CN1CCN(c2ccc3cc(-c4ccc(Cl)cc4)c(=O)oc3c2)CC1` [Compound C20, 3-(4-chlorophenyl)-7-(4-methylpiperazin-1-yl)-2H-chromen-2-one], the EC50 in the data set on SMN2 exon 7 splicing (setting [6]) and with SMN2 exon 7 splicing (setting [7]) was over 8 µM throughout. Moreover, the “splicing modulation in cells” value in the data set with SMN2 exon 7 splicing is reported as “without showing any observable splicing modulation”. For the same molecule, the Kd in data set [1] amounted to 8.2 ± 0.7 µM.

Regarding `O=c1oc2cc(N3CCNCC3)ccc2cc1-c1cn2ccccc2n1` [Compound C29, 3-(imidazo[1,2-a]pyridin-2-yl)-7-(piperazin-1-yl)-2H-chromen-2-one], the EC50 with SMN2 exon 7 splicing (setting [6]) and in the data set with SMN2 exon 7 splicing (setting [7]) was over 8 µM each time. Moreover, the “splicing modulation in cells” value in the data set on SMN2 exon 7 splicing is recorded as “without showing any observable splicing modulation”. This molecule showed a CC50 in “in vitro [2]” of 5.4 µM. In addition, the Kd in data set [5] (Table 3) came out at 0.46 ± 0.08 µM; in data set [5] (Table 4), 0.46 ± 0.8 µM; in data set [1], 2.8 ± 0.5 µM.

On to `Cc1c(-c2ccccc2Cl)c(=O)oc2cc(N3CCN(C)CC3)ccc12` [Compound C21, 3-(2-chlorophenyl)-4-methyl-7-(4-methylpiperazin-1-yl)-2H-chromen-2-one], for which the EC50 in the data set with SMN2 exon 7 splicing (setting [6]) is over 8 µM.

In “in vitro [2]”, `O=c1oc2cc(N3CCNCC3)ccc2cc1-c1cn2cc(Cl)ccc2n1` [Compound C33, 3-(6-chloroimidazo[1,2-a]pyridin-2-yl)-7-(piperazin-1-yl)-2H-chromen-2-one] came in with a CC50 of 11.6 µM.

For the molecule `CCOC(=O)C1=C(Nc2ccccc2)S/C(=C\c2ccc(OCCOCCn3cc(COCCOCCOCCOCCN4CCN(c5ccc6cc(-c7cn8cc(C)nc(C)c8n7)c(=O)oc6c5)CC4C)nn3)c(O)c2)C1=O` (stereo in doubt) [Compound C9, (S,Z)-ethyl 5-(4-(2-(2-(4-(13-(4-(3-(6,8-dimethylimidazo[1,2-a]pyrazin-2-yl)-2-oxo-2H-chromen-7-yl)-2-methylpiperazin-1-yl)-2,5,8,11-tetraoxatridecyl)-1H-1,2,3-triazol-1-yl)ethoxy)ethoxy)-3-hydroxybenzylidene)-4-oxo-2-(phenylamino)-4,5-dihydrothiophene-3-carboxylate], in the data set on SMN2 exon 7 splicing (setting [6]), the EC50 is over 8 µM.

Source of the values: patent US20250368651A1 (priority 2022, published 2025).
